Test results taken from patent US8426596B2, “Process of producing bleach boosters” (BASF Aktiengesellschaft, priority 2005, dated 2013).
Counter-ions that a name gives are not always drawn.

Tests used:
Type in all cases: biochemical
Termamyl (alpha amylase) = molecular target: T1, Termamyl (alpha amylase) (Bacillus licheniformis, UniProt P06278); experiment: Organic Catalyst/Enzyme Compatibility Test (alpha amylase activity assay), Termamyl; settings: (Ac/Ab)x100; peracetic acid 5.0 ppm; organic catalyst 0.5 ppm; 40° C.; sample at 7 min 45 s
T1 construct: purchased Novozymes, Denmark
Procedure: (§1) Organic Catalyst/Enzyme Compatibility Test
(§2) The test described below uses an alpha amylase activity assay to measure the impact of organic catalysts on the enzyme.
(§3) Equipment. UV/Vis spectrophotometer capable of measuring @ 415 nm, heated magnetic stirrer capable of 40° C., 5 ml Luer lock syringe and filters (Acrodisc 0.45 ? μm), pH meter, and balance (4-place analytical).
(§4) Reagents. Merck Amylase Kit (Merck Eurolab, Cat. No. 1.19718.0001); Trizma Base (Sigma Cat # T-1503, or equivalent); Calcium Chloride Dihydrate (Sigma Cat # C-5080, or equivalent); Sodium Thiosulfate Pentahydrate (Sigma Cat # S-6672 or equivalent); Hydrochloric Acid (VWR Cat # JT9535-0, or equivalent); Hardness solution (CTC Group, 3.00 gr/cc or equivalent); Sodium Percarbonate; Peracetic Acid (Aldrich, Cat. #26933-6 or equivalent); Amylase enzymes: Termamyl, Natalase, and Duramyl (Novozymes, Denmark); Granular detergent matrix containing no enzyme, organic catalyst or bleaching agents.
(§5) 1.) Solution Preparation: Prepare the Following:
(§6) • a.) TRIS Assay Buffer. Prepare 1 liter of 0.1M TRIS buffer, 0.5% sodium thiosulphate (W/V), 0.11% calcium chloride (w/v) at pH 8.3. • b.) Blank Detergent Solution. Prepare one liter of 0.5% enzyme and bleach free granular detergent product in deionized water (W/V) that is 250 ppm H2O2 (0.77 gm percarbonate) and 10 gpg hardness (880 UI of hardness). • c.) Termamyl, Duramyl and Natalase Stock. Make 100 ml solutions each of a 0.1633 mg active Termamyl per ml TRIS Buffer, a 0.1159 mg active Natalase per ml TRIS Buffer, and a 0.1596 mg active Duramyl per ml TRIS Buffer. • d.) Organic catalyst stocks. Make a 500 ppm in methanol solution of μm. • e.) Peracetic acid stock. Make a 3955 ppm peracetic acid solution in deionized water. • f.) Amylase reagent. Follow Merck kit instructions for preparing flacons (containers) 1 and 2 using flacon 3 and subsequent mixing of flacons 1 and 2 to produce the final reagent used in the amylase activity analysis. 2.) Sample Analysis • a.) Analysis of sample with enzyme only: Add 100 ml of blank detergent solution to a 150 ml beaker. Place beaker on heated stir plate and bring temperature to 40° C. with stirring. Add Y μl of enzyme stock to the beaker where Y=612 μL for Duramyl, 306 μl for Termamyl, or 918 μl for Natalase. Spike only enzyme of interest. Stir sample for 1 minute. Start timer. At 7 minutes 45 seconds, pull a sample and filter it using a 0.45 μm syringe filter (5 ml syringe). Mix 6 μl of filtered sample with 250 μL of amylase reagent in a cuvette and place the cuvette in a UV/VIS spectrophotometer and monitor change in absorbance at 415 nm. Determine length of time (tE) to the nearest second required to obtain an absorbance reading of 1.0 for each enzyme. Use each enzyme's tE in Steps 2.)b.) and 2.)c.) below. • b.) Analysis of sample with enzyme and peracetic acid only. Follow Step 2.)a.) except after enzyme addition, allow solution to stir for 1 minute then add 127 μl of peracetic acid stock and start timer. Pull sample at 7 minutes 45 seconds as in Step 2.)a.). Once sample and reagent are mixed, record the absorbance at tE for the respective enzyme. Designate such absorbance Ab. • c.) Analysis of sample with enzyme, peracetic acid, and organic catalyst. […] Once sample and reagent are mixed, record the absorbance at tE for the respective enzyme. Designate such absorbance A, 3.) Calculate Enzyme Compatibility Value (ECV) • a.) Calculate the ECV for each specific enzyme: termamyl (ECVter), duramyl (ECVdur) and natalase (ECVnat). […]

Duramyl (alpha amylase) = experiment: Organic Catalyst/Enzyme Compatibility Test (alpha amylase activity assay), Duramyl; settings: (Ac/Ab)x100; peracetic acid 5.0 ppm; organic catalyst 0.5 ppm; 40° C.; sample at 7 min 45 s
Procedure: as §1, §2, §3, §4, §5, §6

Natalase (alpha amylase) = experiment: Organic Catalyst/Enzyme Compatibility Test (alpha amylase activity assay), Natalase; settings: (Ac/Ab)x100; peracetic acid 5.0 ppm; organic catalyst 0.5 ppm; 40° C.; sample at 7 min 45 s
Procedure: as §1, §2, §3, §4, §5, §6

[1] = system: Termamyl, Duramyl and Natalase (alpha amylases); experiment: Organic Catalyst/Enzyme Compatibility Test, average over the three amylases; settings: ECV=(ECVter+ECVdur+ECVnat)/3; peracetic acid 5.0 ppm; organic catalyst 0.5 ppm
Procedure: as §1, §2, §3, §4, §5, §6

T1 sequence (P06278 30-512): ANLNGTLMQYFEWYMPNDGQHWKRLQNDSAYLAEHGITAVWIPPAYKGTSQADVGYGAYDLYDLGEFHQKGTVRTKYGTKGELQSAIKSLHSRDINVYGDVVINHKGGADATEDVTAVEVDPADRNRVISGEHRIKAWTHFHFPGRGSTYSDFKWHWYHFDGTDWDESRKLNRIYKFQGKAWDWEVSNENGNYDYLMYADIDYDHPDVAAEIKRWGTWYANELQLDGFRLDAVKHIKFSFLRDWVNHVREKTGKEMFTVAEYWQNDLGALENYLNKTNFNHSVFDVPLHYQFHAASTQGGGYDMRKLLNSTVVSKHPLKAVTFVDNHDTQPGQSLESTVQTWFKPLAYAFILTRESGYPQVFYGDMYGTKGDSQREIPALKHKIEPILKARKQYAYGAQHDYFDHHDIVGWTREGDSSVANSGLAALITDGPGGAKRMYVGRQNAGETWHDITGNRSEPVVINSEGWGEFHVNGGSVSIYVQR

SMILES: Cc1ccc(CC2(Cc3ccc(C)cc3)C[N+](CCCS(=O)(=O)[O-])=Cc3ccccc32)cc1 [Entry 5, 3,4-dihydro-4,4-di(4-methylphenylmethyl)-2-(3-sulfopropyl)-isoquinolinium, internal salt]
- Enzyme Compatibility Value ECVter (Termamyl (alpha amylase)): 103
- Enzyme Compatibility Value ECVdur (Duramyl (alpha amylase)): 99
- Enzyme Compatibility Value ECVnat (Natalase (alpha amylase)): 99
- Enzyme Compatibility Value ECV [1]: 100

SMILES: CCCCC(CC)COCC(C[N+]1=Cc2ccccc2CC1)OS(=O)(=O)[O-] (centres unmarked) [Entry 2, Sulfuric acid mono-[2-(3,4-dihydro-isoquinolin-2-yl)-1-(2-ethyl-hexyloxymethyl)-ethyl] ester, internal salt, reference compound]
- Enzyme Compatibility Value ECVter (Termamyl (alpha amylase)): 54
- Enzyme Compatibility Value ECVdur (Duramyl (alpha amylase)): 90
- Enzyme Compatibility Value ECVnat (Natalase (alpha amylase)): 57
- Enzyme Compatibility Value ECV [1]: 67

SMILES: O=S(=O)([O-])OCC[N+]1=Cc2ccccc2C(Cc2ccccc2)(Cc2ccccc2)C1 [Entry 3, 3,4-dihydro-4,4-di(phenylmethyl)-2-[2′-(sulfooxy)ethyl]-isoquinolinium, internal salt]
- Enzyme Compatibility Value ECVter (Termamyl (alpha amylase)): 101
- Enzyme Compatibility Value ECVdur (Duramyl (alpha amylase)): 100
- Enzyme Compatibility Value ECVnat (Natalase (alpha amylase)): 103
- Enzyme Compatibility Value ECV [1]: 101

SMILES: CC(C)(C)OCC(C[N+]1=Cc2ccccc2CC1)OS(=O)(=O)[O-] (centres unmarked) [Entry 1, Sulfuric acid mono-[2-(3,4-dihydro-isoquinolin-2-yl)-1-((1,1-di-methylethoxy)methyl)ethyl] ester, internal salt, reference compound]
- Enzyme Compatibility Value ECVter (Termamyl (alpha amylase)): 51
- Enzyme Compatibility Value ECVdur (Duramyl (alpha amylase)): 86
- Enzyme Compatibility Value ECVnat (Natalase (alpha amylase)): 58
- Enzyme Compatibility Value ECV [1]: 65

SMILES: O=S(=O)([O-])CCC[N+]1=Cc2ccccc2C(Cc2ccccc2)(Cc2ccccc2)C1 [Entry 4, 3,4-dihydro-4,4-dibenzyl-2-(3-sulfopropyl)isoquinolinium, Internal salt]
- Enzyme Compatibility Value ECVter (Termamyl (alpha amylase)): 102
- Enzyme Compatibility Value ECVdur (Duramyl (alpha amylase)): 99
- Enzyme Compatibility Value ECVnat (Natalase (alpha amylase)): 104
- Enzyme Compatibility Value ECV [1]: 102
